We go through 6 compounds from ChEMBL document CHEMBL1795287, “Efficient synthesis of 3-O-thia-cPA and preliminary analysis of its biological activity toward autotaxin” (Bioorg Med Chem Lett, 2011).

The target of test [1] is Autotaxin (Homo sapiens) (UniProt Q13822). The test is described as follows: Inhibition of human ATX catalytic activity in MDA-MB-231 cells using conditioned medium at 10 uM. In kind it is cell-based.
Test [2] shares this target. As to the kind of experiment: Inhibition of human ATX catalytic activity in MDA-MB-231 cells using conditioned medium. Format: cell-based.

`CCCCCC/C=C\CCCCCCCC(=O)OCC1CSP(=O)(O)O1` (racemic): the inhibition (commonly the relative decrease from the control value, in per cent) against Autotaxin (Homo sapiens) [1] was 55%; on Autotaxin (Homo sapiens) [2], “Dose-dependent effect”. In the same order, the values of `CCCCCCCC/C=C\CCCCCCCC(=O)OCC1CSP(=O)(O)O1` (racemic) are 55% and “Dose-dependent effect”. Take `CCCCCCCCCCCCCCCC(=O)OCC1CSP(=O)(O)O1` (racemic): the values for the inhibition against Autotaxin (Homo sapiens) [1] and on Autotaxin (Homo sapiens) [2] were 55% and “Dose-dependent effect”, respectively. Take `CCCCCCCCCCCCCCCCCC(=O)OCC1CSP(=O)(O)O1` (racemic): the values for the inhibition on Autotaxin (Homo sapiens) [1] and on Autotaxin (Homo sapiens) [2] were 55% and “Dose-dependent effect”, respectively. `CCCCCCCC/C=C\CCCCCCCC(=O)OCC1COP(=O)(O)O1` (stereo not given) displayed an inhibition at Autotaxin (Homo sapiens) [1] of 25%. Consider `CCCCCC/C=C\CCCCCCCC(=O)OCC1COP(=O)(O)C1` (stereo not given), for which, on Autotaxin (Homo sapiens) [1], the inhibition worked out at 66%.
